Experimental data as given in US5871779A, “Treatment of arthropathies with vanadate compounds or analogues thereof” (Mount Sinai Hospital Corporation, priority 1996, dated 1999).
“And” between values parts separate entries of the source, which are not always exact repeats. Equal values may be shown once.

Legend:
[1] = body weights of mice, BMOV solution and beads (Example 19); assay type: in vivo
Description: On day 6 the mice were divided into 6 groups as follows: group 1, empty control; group 3, tumor control; group 3, injected subcutaneously with 0.25 mg/100μl BMOV, twice a day; group 4, injected IP with 20 mg palla beads containing 5 mg of BMOV; group 5, injected IP with 10 mg of BMOV beads on day 6 and day 9 respectively and; group 6, injected intramuscularly with 10 mg of BMOV beads on day 6 and day 9. On day 16, the mice were sacrificed and tumors were dissected.
The body weights of mice in control and treated groups, and the tumor weights from control and treated mice, are shown in Tables 5 and 6 respectively.

IL-1α = assay: synovial IL-1α expression in arthritic rats (Northern blot); assay type: in vivo, rat; settings: BMOV-treated (with NAC) vs control, Day 18
Description: Collagenase, stromelysin, and IL-1 expression were quantitated in each group of rats. Selected rats in each group were sacrificed on Day 18 post arthritis onset to measure collagenase, stromelysin, and IL-1 expression via the Northern Blot. Synovial biopsies were pooled and homogenized in the presence of RNASTAT-60 (Tel Test). Total RNA was isolated following the manufacturer's instructions, washed in 70% ethanol, and dissolved in 30 μl RNA loading buffer (Sigma) containing ethidium bromide. The RNA was electrophoresed on a 1% agarose formaldehyde gel and transferred to 0.45 μm nylon filter membrane (Magna NT, MSL). The blot was prehybridised in 50% formamide, 5×SSPE, 5×dendhardts, 1% SDS, 200 μg/ml ssDNA and 50 μg/ml tRNA. The rat collagenase cDNA (bp. 1-550 of locus RATCOL genbank accession M60616), rat stromelysin (ATCC, Rockville, Md.), or rat […] (genbank accession D00403) were labeled by random primed incorporation of ^32 P-dATP (Random Primed Labeling Kit, Boerhinger Manheim). After overnight hybridization at 42° C. overnight, the blot was washed in 1×SSPE at 37° C. and exposed to Kodak X-Ornat AP film for 24 hours at -70° C. with an intensifying screen. The blot was stripped with 50% formamide in 2×SSPE, checked for residual counts and reprobed. The resulting autoradiographs were digitized and analyzed with NIH image software and normalized for RNA loading.

synoviocytes = assay: synoviocyte proliferation, dye exclusion (Example 24); assay type: cell-based
Description: The effect of vanadium compounds on synoviocyte proliferation was investigated as follows. Synoviocytes were plated on six well plates and treated with orthovanadate or vanadyl sulphate and incubated for 24 hours. The cells were removed and the number of viable cells determined by the dye exclusion method.

[2] = toxicity of orthovanadate by route of administration; assay type: in vivo, mice
Excerpt: However, subcutaneous injections of up to 500 μgms orthovanadate is tolerated by the animals. Slow administration of the orthovanadate would decrease toxicity and the animals may tolerate higher doses.

fos = fos / c-fos mRNA expression in chondrocytes (Northern blot); assay type: cell-based, bovine; settings: 100 μM
How it was run: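 Bovine articular chondrocytes incubated 1 h with IL-1, PMA or AA (3 μM), or treated with IL 1 ± DPI, or with H2O2 for 30, 60 and 90 min. Total RNA run on formaldehyde agarose gels and probed by Northern blot with c-fos, c-jun or collagenase cDNA.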

MCF7 (ADR) = assay: MTT cytotoxicity assay, MCF7 (ADR); assay type: cell-based, human; settings: MCF7 (ADR), 72 hours; read-out: IC50 Value
Description: The relative cytotoxicity of various compounds on tumor cell lines was investigated as follows. Cytotoxicity was measured by the MTT microculture tetrazolium colorimetric assay for all cell lines. The relative cytotoxicity of Na3 VO4 and VOSO4 was investigated using the following tumor cell lines: P388(WT) murine leukemia, P388 (ADR) murine leukemia, Lewis murine lung, MCF7 (WT) human breast, […] human lung, K562 human erythroleukemia, A431 human epidermal, LS180 human colon and SK-OV-3 human ovarian. The relative cytotoxicity of doxorubicin, Na3 VO4 and VOSO4 was investigated using the following tumor cell lines: P388(WT) murine leukemia, P388 (ADR) murine leukemia, MCF7(WT) human breast and MCF7 (ADR) human breast. The relative cytotoxicity of BMOV, BEOV and naglivan was investigated using the following tumor cell lines: P388(WT) murine leukemia, P388 (ADR) murine leukemia, Lewis murine lung, H460 human lung, K562 human erythroleukemia, and SK-OV-3 human ovarian.
The cells were plated (number of cells/well was different from cell line to cell depending on the dividing rate) in a 96-well microculture plate 24 hours prior to the delivery of the vanadium compounds. Serial concentrations of solutions of the test compounds (0.05-100 μM) were delivered to the corresponding wells. A blank column (without cells) and a control column (with cells without vanadium) were left. The cells were incubated for 72 hours continuously. An MTT solution was added to each well after this incubation period and the cells were incubated for 4 more hours for the completion of the dyeing process. The medium was removed find DMSO was added to each well. The absorbance of each well was read with a Titertek Multiskan (310C) spectrophotometer at 570 nm. The percentage of the absorbance of each vanadium concentration relative to the control calculated and the value of the 50% growth inhibition concentration (IC50) was obtained from the % control versus concentration plot. Each assay was repeated three times and the reported IC50 values were the mean of these three runs.

Row | Compound | Body weight, Average ([1]; BMOV solution 0.25 mg × 1) | Body weight ([1]; BMOV solution 0.25 mg × 1, individual mice) | percent inhibition of IL-1α gene expression (IL-1α) [%] | Number of cells (synoviocytes; 25 μM, 24 hours (control 2.6)) | cytotoxicity to synoviocytes (synoviocytes; 24 hours) | synoviocyte proliferation (synoviocytes; 24 hours) | toxicity, oral administration ([2]; 0.5 mg/ml oral) | toxicity, intraperitoneal administration ([2]; high doses i.p.) | tolerated subcutaneous injection ([2]; subcutaneous) | inhibition of IL 1, PMA and AA induced c-fos expression (fos) | IC50 (MCF7 (ADR)) [µM]
1 | Cc1occc(=O)c1[O-].Cc1occc(=O)c1[O-].[O]=[V+2] [BMOV, bis(methylmaltolato) oxovanadium (IV)] | 17.87 | 18.8 and 17.8 and 18.4 and 17.3 | 85 | – | – | – | – | – | – | – | –
2 | [Na+].[Na+].[Na+].[O]=[V]([O-])([O-])[O-] [orthovanadate, sodium orthovanadate] | – | – | – | 0.1 10^-5 | cytotoxic to the cells | inhibited synoviocyte proliferation | gastric toxicity | toxic to the animals | up to 500 μgms | completely inhibited | 30.7
